# Values quoted from earlier work, collected in publication PMC12281572.
# Where “and” joins values, the source holds several entries; their conditions need not be identical. Equal entries are not always repeated.
# Assay: FTIR, 4-fluorophenol as donor (the pK_BHX database, per the paper)
# Conditions: CCl4; 25 C
row,SMILES,"pK_BHX (log10 Kf of the 1:1 H-bond complex with 4-fluorophenol, by FTIR)"
1,CC(=O)c1ccc(C)cc1,1.24 log units
2,Cc1ccc(N=C(c2ccccc2)N(C)c2ccccc2)cc1,1.52 log units
3,CCN(CC)C(=O)SC,1.56 log units
4,c1ccc(C2CCCN2)cc1 (centres unmarked),1.93 log units
5,O=C1CCCCO1,1.57 log units
6,Cc1ccc(C#N)cc1,0.88 log units
7,CN1CCCN(C)C1=O,2.79 log units
8,CCOC(=O)C1CC1,1.12 log units
9,COc1ccc(OC)cc1,0.12 log units
10,CS(=O)c1ccc([N+](=O)[O-])cc1 (centres unmarked),1.58 log units
11,c1ccc2cnccc2c1,1.94 log units
12,O=c1c2ccccc2oc2ccccc12,1.36 log units
13,c1ccc2c(c1)Cc1ccccc1-2,-0.38 log units
14,Cc1ccc(O)cc1,0.03 log units
15,C1CCCNCC1,2.24 log units
16,CN(C)c1ccc(C=O)cc1,1.53 log units
17,CN(C)C(=O)C(C)(C)C,2.1 log units
18,CC(=O)C(C)=O,0.23 log units
19,COC(=O)c1ccccc1,0.89 log units
20,CC(C)(C)O,1.14 log units
21,CCN(C(C)C)C(C)C,1.05 log units
22,C1CCSC1,0.32 log units
23,CO,0.82 log units
24,C1COCO1,0.45 log units
25,O=c1cc(-c2ccccc2)oc2ccccc12,1.99 log units
26,Cc1ccccn1,2.03 log units

row,SMILES,"pK_BHX (log10 Kf of the 1:1 H-bond complex with 4-fluorophenol, by FTIR)"
1,CC(C)O,1.06 log units
2,CN(C)C(=O)c1ccc([N+](=O)[O-])cc1,1.9 log units
3,CC(=Nc1ccc(Br)cc1)Nc1ccccc1,1.36 log units
4,CC(=O)c1ccccc1,1.11 log units
5,COc1cccc(C)c1,0.05 log units
6,CCCCN,2.19 log units
7,OCCc1ccccc1,0.97 log units
8,COC(=O)OC,0.82 log units
9,CN(C)c1ccccn1,1.61 log units
10,C1CCNC1,2.59 log units
11,CN(C)Cc1ccccc1,1.59 log units
12,C1CNCCN1,2.11 log units
13,CC(=Nc1ccccc1)N(C)c1ccc(Br)cc1,1.38 log units
14,CS(=O)c1ccccc1 (centres unmarked),2.24 log units
15,NCCCCN,2.21 log units
16,C1CN2CCN1CC2,2.33 log units
17,CC(C)(C)c1ccccc1,-0.32 log units
18,c1ccc2scnc2c1,1.29 log units
19,Cc1ccccc1C#N,0.83 log units
20,CCOC(=O)C=CN(C)C,2.09 log units
21,Oc1ccc(F)cc1,-0.12 log units
22,CN(C)C(=O)C(F)(F)F,1.04 log units
23,c1ccc(Nc2ccccc2)cc1,-0.3 log units
24,Nc1cccc(F)c1,0.2 log units
25,FC(F)(F)c1cccc(C2CCCN2)c1 (centres unmarked),1.38 log units

# Continued, values first:
row,"pK_BHX (log10 Kf of the 1:1 H-bond complex with 4-fluorophenol, by FTIR)",SMILES
1,1.67 log units,COc1ccc(C(=O)N(c2ccccc2)c2ccccc2)cc1
2,1.23 log units,CN1C(C)(C)CCCC1(C)C
3,1.16 log units,COc1ccc(C(=S)N(C)C)cc1
4,1.06 log units,COc1ccccc1C#N
5,0.53 log units,N#Cc1cccc(C(F)(F)F)c1
6,2.03 log units,CNC(=O)c1ccccc1
7,1.58 log units,CCN(C=C[N+](=O)[O-])CC
8,2.26 log units,CCC(C)(C)N=CN(C)C
9,1.21 log units,CCCCC(=O)CCCC
10,0.02 log units,Cc1c(C)c(C)c(C)c(C)c1C
11,2.17 log units,CCCCN(C=O)CCCC
12,0.9 log units,CC(=O)c1ccccc1Cl
13,1.0 log units,O=C1CCC1
14,0.78 log units,CC(=O)c1ccc(C(F)(F)F)cc1
15,1.05 log units,O=[N+]([O-])c1cc[n+]([O-])cc1
16,1.57 log units,CCCCCCCCN(CCCCCCCC)CCCCCCCC
17,1.22 log units,CC(=S)N(C)C
18,1.18 log units,C(=NCc1ccccc1)c1ccccc1
19,0.97 log units,COc1ccc(C#N)cc1
20,0.13 log units,C1CSC1
21,2.41 log units,CC(=O)N(C1CCCCC1)C1CCCCC1

row,"pK_BHX (log10 Kf of the 1:1 H-bond complex with 4-fluorophenol, by FTIR)",SMILES
1,1.06 log units,CN1C(=O)CCC1=O
2,1.55 log units,O=[N+]([O-])C=CN1CCCCC1
3,0.72 log units,CC(=O)c1cccc(C(F)(F)F)c1
4,-0.32 log units,IC1CCCCC1
5,2.85 log units,[O-][n+]1ccc(-c2ccccc2)cc1
6,1.05 log units,CCOC(=O)c1ccc(C)cc1
7,2.53 log units,CN1CCCCCC1=O
8,0.54 log units,N#Cc1ccc(C(F)(F)F)cc1
9,0.3 log units,CC(C)CN(C(C)C)C(C)C
10,1.58 log units,NCc1cccc(F)c1
11,2.35 log units,C=Cn1ccnc1
12,2.31 log units,COc1ccc(C(=O)N(C)C)cc1
13,1.01 log units,CCOC(=O)c1cccc(C)c1
14,0.5 log units and 0.16 log units,CCOC(=O)c1ccc([N+](=O)[O-])cc1
15,1.65 log units,c1ccnnc1
16,1.99 log units,CN(C)C=NCc1cccc(C(F)(F)F)c1
17,2.0 log units,CN1CCCNC1=S
18,0.68 log units,c1ccc(N2CCCCC2)cc1
19,1.98 log units,c1ccc(C2=NCCC2)cc1
20,-0.22 log units,CC(C)(C)Br
21,2.52 log units,CN(C)C=NC12CC3CC(CC(C3)C1)C2

row,"pK_BHX (log10 Kf of the 1:1 H-bond complex with 4-fluorophenol, by FTIR)",SMILES
1,1.74 log units,O=C(N(c1ccccc1)c1ccccc1)N(c1ccccc1)c1ccccc1
2,1.32 log units and 1.23 log units,CN(C)C=Nc1ccc(C#N)cc1
3,-0.45 log units,Cc1cc(C(C)(C)C)nc(C(C)(C)C)c1
4,1.8 log units,COC(=O)N(C)C
5,2.1 log units,CN(C)C=NCc1cccc(Cl)c1
6,-0.34 log units,CCC(CC)N(C(C)C)C(C)C
7,2.4 log units,COc1cccc(CN=CN(C)C)c1
8,2.11 log units,CNc1ccccn1
9,1.49 log units,CC(=NC(=S)SCc1ccccc1)N(C)C
10,1.0 log units,CN(C)S(C)(=O)=O
11,1.23 log units,CN(C)c1ccc(C#N)cc1
12,2.24 log units,CC(C)C(=O)N(C1CCCCC1)C1CCCCC1
13,2.6 log units,CC(C)N=CN(C)C
14,0.42 log units,O=[N+]([O-])c1ccc(C23CC4CC(CC(C4)C2)C3)cc1
15,1.49 log units,COC(=O)c1ccccc1OC
16,0.34 log units,CC12CCC(CC1=S)C2(C)C (centres unmarked)
17,2.11 log units,CC(C)(C)c1ccncc1
18,0.48 log units,FC1C2CC3CC(C2)C(F)C1C3 (centres unmarked)
19,2.24 log units,CC(=NC#N)N(C)C
20,0.17 log units,CCCCCCCCSC
